Results taken from paper PMC9085648, “Synthesis of novel genistein amino acid derivatives and investigation on their interactions with bovine serum albumin by spectroscopy and molecular docking” (RSC Advances, 2018).
Where two headings read alike, the source gives them in different places.

Legend:
HCT-116 = assay: MTT cytotoxicity assay, HCT-116; type: cell-based; conditions: Homo sapiens, 48 h, mean ± SD of three experiments, read-out: Cancer cell lines IC50, HCT-116
Procedure: (§1) All cell lines were purchased from the Cell Bank of Type Culture Collection of Chinese Academy of Sciences (Shanghai, China). MGC-803 was routinely cultured in RPMI-1640 medium containing 10% FBS and 1% penicillin/streptomycin. MCF-7, HCT-116 and Hela were routinely cultured in medium DMEM/high glucose containing 10% FBS and 1% penicillin/streptomycin. All cell lines were incubated in culture at 37 °C in air with 5% CO2 for 24 h.
(§2) All cell lines were plated in 96-well plates, and each well contains 4000 cells in 100 μL culture medium. Then the cells were treated with genistein or its amino acid derivatives dissolved in DMSO at different doses in a CO2 incubator at 37 °C for 48 h, and DMSO was used as vehicle control. After removing the culture medium, 10 μL MTT and 90 μL blank culture medium were added to each well and incubated for additional 4 h at 37 °C. The absorbance was determined by a microplate-reader at 490 nm.

MCF-7 = assay: MTT cytotoxicity assay, MCF-7; type: cell-based; conditions: Homo sapiens, MCF7, 48 h, mean ± SD of three experiments, read-out: Cancer cell lines IC50, MCF-7
Procedure: as §1, §2

BSA [1] = target: T1, BSA (Bos taurus, UniProt P02769); assay: Fluorescence quenching of BSA (Stern-Volmer, double-log, van't Hoff); type: binding, bovine; conditions: for K SV (quenching constant): BSA 1 μM, pH 7.4; for ΔGexp: ΔGexp = ΔH − TΔS; for K q (quenching rate constant): τ0 = 10^−8 s; for Kd: read-out: K b (binding constant) (converted); for ΔH / ΔS: van't Hoff, 298-310 K
T1 construct: purchased Aladdin's Reagent Co., Ltd. (Shanghai, China)
T1 sequence (P02769 25-607): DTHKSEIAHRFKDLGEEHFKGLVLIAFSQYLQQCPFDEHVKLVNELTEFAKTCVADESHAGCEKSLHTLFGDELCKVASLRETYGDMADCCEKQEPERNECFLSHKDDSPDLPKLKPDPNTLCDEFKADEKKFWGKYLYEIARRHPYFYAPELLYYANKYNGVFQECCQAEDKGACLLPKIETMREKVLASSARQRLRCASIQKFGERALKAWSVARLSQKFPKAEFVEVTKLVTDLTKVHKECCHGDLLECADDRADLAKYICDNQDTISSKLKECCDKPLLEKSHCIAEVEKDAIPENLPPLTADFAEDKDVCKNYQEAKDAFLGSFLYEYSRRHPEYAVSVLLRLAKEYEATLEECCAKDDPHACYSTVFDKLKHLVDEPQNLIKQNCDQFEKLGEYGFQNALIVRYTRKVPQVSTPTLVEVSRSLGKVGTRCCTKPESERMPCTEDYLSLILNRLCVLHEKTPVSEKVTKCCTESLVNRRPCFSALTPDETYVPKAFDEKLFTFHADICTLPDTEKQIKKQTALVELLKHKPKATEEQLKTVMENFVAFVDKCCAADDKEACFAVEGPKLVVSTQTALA
Procedure: Fluorescence spectra were carried on a F-7000 fluorescence spectrophotometer (Japan) fitted out with a 1.0 cm quartz dish. The excitation wavelength was set at 280 nm with 5/5 nm slit widths, while the emission wavelength ranged from 290 nm to 500 nm at different temperatures. The BSA solution (1 μM) was titrated with genistein and its amino acid derivatives 4a–4d for three times. The final concentrations of genistein and 4a–4d were (0.0, 6.4, 12.8, 19.2, 25.6, 32, 38.4, 44.8, and 51.2) μM.
The Stern–Volmer equation is often applied to reveal the fluorescence quenching mechanism:[19]1 [drawing 1] where F0 and F are the fluorescence intensities of complex […], respectively.[18] [Q] denotes the concentration of quencher. Ksv and Kq are quenching constant and quenching rate constant of BSA, respectively.[20]τ0 is the lifetime of fluorophore in the absence of genistein, 4a–4d and equals to 10^−8 s.[21] […] It can be observed that the Ksv values decreased gradually with rise in temperature in Table 2. Furthermore, Kq values were in the order of 10^12, which were larger than the maximum diffusion collisional rate constant (2.0 × 10^10 M^−1 s^−1).[22]
Double-logarithmic eqn (2) is often used to explore the binding parameters of static quenching, such as binding constant (Kb) and binding sites (n):[23]2 [drawing 2]
To clarify the binding forces between genistein, 4a–4d and BSA, the thermodynamic parameters were studied via the van't Hoff equations:[25]3 [drawing 3] 4 ΔG = −RT ln K = ΔH − TΔSwhere T denotes the experimental temperature, K denotes the binding constant at the corresponding temperature, R is the gas constant.[26] According to Ross and Subramanian's previous research,[27] the characteristic for van der Waals interactions or/and hydrogen bonding is ΔH < 0 and ΔS < 0, for hydrophobic interaction is ΔH > 0 and ΔS > 0, and for electrostatic interactions is ΔH ≈ 0 and ΔS > 0.[28] The calculation results of the thermodynamic parameters were recorded in Table 3.

MGC-803 = assay: MTT cytotoxicity assay, MGC-803; type: cell-based; conditions: Homo sapiens, 48 h, mean ± SD of three experiments, read-out: Cancer cell lines IC50, MGC-803
Procedure: as §1, §2

BSA [2] = target: T1, BSA; assay: Three-dimensional fluorescence spectroscopy of BSA; type: binding, bovine
Procedure: The 3D fluorescence spectra of genistein and compounds 4a–4d were recorded with scanning excitation wavelength ranged from 200 nm to 300 nm with 10 nm interval, and emission wavelength ranged from 290 nm to 470 nm with 5 nm interval for three times. Other parameters were the same as Section 2.4.1.

Hela = assay: MTT cytotoxicity assay, Hela; type: cell-based; conditions: Homo sapiens, 48 h, mean ± SD of three experiments, read-out: Cancer cell lines IC50, Hela
Procedure: as §1, §2

[3] = Peak 1, [BSA]:[compound] = 1:3, 298 K
[4] = Peak 2, [BSA]:[compound] = 1:3, 298 K
[5] = Peak a (Rayleigh scattering), [BSA]:[compound] = 1:3, 298 K

Row | SMILES | IC50 (HCT-116) | IC50 (MCF-7) | K SV (quenching constant) (BSA [1]; T 298 K) | ΔGexp (BSA [1]; T 298 K) | K q (quenching rate constant) (BSA [1]; T 298 K) | Kd (BSA [1]; T 298 K) | n (binding sites) (BSA [1]; T 306 K) | K SV (quenching constant) (BSA [1]; T 306 K) | ΔGexp (BSA [1]; T 306 K) | K q (quenching rate constant) (BSA [1]; T 306 K) | Kd (BSA [1]; T 306 K) | n (binding sites) (BSA [1]; T 310 K) | ΔGexp (BSA [1]; T 310 K) | Kd (BSA [1]; T 310 K) | ΔH (BSA [1]) | ΔS (BSA [1]) | IC50 (MGC-803) | 3D fluorescence intensity (BSA [2]; [3]) | 3D fluorescence peak position λex/λem (BSA [2]; [3]) | 3D fluorescence intensity (BSA [2]; [4]) | also measured
1 | COC(=O)CNC(=O)COc1cc(O)c2c(=O)c(-c3ccc(O)cc3)coc2c1 [4a] | 65.3 ± 2.91 µM | > 100 µM | 9.3690 ± 0.1055 10^4 M^−1 | -49.21 kJ/M | 9.3690 10^12 M^−1 s^−1 | 0.0023 µM | 1.72 | 9.0645 ± 0.0720 10^4 M^−1 | -47.21 kJ/M | 9.0645 10^12 M^−1 s^−1 | 0.00952 µM | 1.66 | -46.22 kJ/M | 0.0153 µM | -123.52 kJ/M | −249.37 J K^−1 M^−1 | 24.4 ± 1.27 µM | 249.8 a.u | 230/355 | 300.8 a.u | n (binding sites) (BSA [1]; T 298 K): 1.86; K SV (quenching constant) (BSA [1]; T 310 K): 7.7362 ± 0.1223 10^4 M^−1; K q (quenching rate constant) (BSA [1]; T 310 K): 7.7362 10^12 M^−1 s^−1; 3D fluorescence peak position λex/λem (BSA [2]; [4]): 280/355; 3D fluorescence intensity (BSA [2]; [5]): 167.9 a.u; 3D fluorescence peak position λex/λem (BSA [2]; [5]): 290/295; IC50 (Hela): 66.6 ± 3.6 µM
2 | COC(=O)C(C)NC(=O)COc1cc(O)c2c(=O)c(-c3ccc(O)cc3)coc2c1 (stereo not drawn) [4b] | > 100 µM | 21.3 ± 2.24 µM | 8.0160 ± 0.1379 10^4 M^−1 | -42.01 kJ/M | 8.0160 10^12 M^−1 s^−1 | 0.0649 µM | 1.53 | 6.9409 ± 0.0956 10^4 M^−1 | -38.43 kJ/M | 6.9409 10^12 M^−1 s^−1 | 0.0794 µM | 1.23 | -36.65 kJ/M | 1.55 µM | -175.21 kJ/M | −446.98 J K^−1 M^−1 | 12.08 ± 0.06 µM | 199.8 a.u | 230/355 | 242.6 a.u | 3D fluorescence peak position λex/λem (BSA [2]; [4]): 280/355; 3D fluorescence intensity (BSA [2]; [5]): 140.7 a.u; 3D fluorescence peak position λex/λem (BSA [2]; [5]): 290/295; IC50 (Hela): 90.27 ± 0.47 µM
3 | COC(=O)C(NC(=O)COc1cc(O)c2c(=O)c(-c3ccc(O)cc3)coc2c1)C(C)C (stereo not drawn) [4c] | 42.64 ± 0.15 µM | 99.73 ± 0.11 µM | 6.2575 ± 0.1717 10^4 M^−1 | -41.29 kJ/M | 6.2575 10^12 M^−1 s^−1 | 0.084 µM | 1.53 | 5.0010 ± 0.1067 10^4 M^−1 | -37.63 kJ/M | 5.0010 10^12 M^−1 s^−1 | 0.119 µM | 1.24 | -35.81 kJ/M | 2.01 µM | -177.34 kJ/M | −456.55 J K^−1 M^−1 | 33.53 ± 0.13 µM | 254.6 a.u | 230/355 | 338.3 a.u | n (binding sites) (BSA [1]; T 298 K): 1.54; K SV (quenching constant) (BSA [1]; T 310 K): 4.8646 ± 0.1370 10^4 M^−1; K q (quenching rate constant) (BSA [1]; T 310 K): 4.8646 10^12 M^−1 s^−1; 3D fluorescence peak position λex/λem (BSA [2]; [4]): 280/355; 3D fluorescence intensity (BSA [2]; [5]): 210.9 a.u; 3D fluorescence peak position λex/λem (BSA [2]; [5]): 290/295; IC50 (Hela): 82.71 ± 0.15 µM
4 | COC(=O)C(CC(C)C)NC(=O)COc1cc(O)c2c(=O)c(-c3ccc(O)cc3)coc2c1 (stereo not drawn) [4d] | 92.87 ± 0.04 µM | 47 ± 3.53 µM | 4.9339 ± 0.0500 10^4 M^−1 | -39.53 kJ/M | 4.9339 10^12 M^−1 s^−1 | 0.15 µM | 1.47 | 4.8535 ± 0.0465 10^4 M^−1 | -37.19 kJ/M | 4.8535 10^12 M^−1 s^−1 | 0.209 µM | 1.28 | -36.02 kJ/M | 1.42 µM | -126.67 kJ/M | −292.42 J K^−1 M^−1 | 35.4 ± 3.72 µM | 263.8 a.u | 230/355 | 331.4 a.u | n (binding sites) (BSA [1]; T 298 K): 1.50; K SV (quenching constant) (BSA [1]; T 310 K): 4.5804 ± 0.0360 10^4 M^−1; K q (quenching rate constant) (BSA [1]; T 310 K): 4.5804 10^12 M^−1 s^−1; 3D fluorescence peak position λex/λem (BSA [2]; [4]): 280/355; 3D fluorescence intensity (BSA [2]; [5]): 155.5 a.u; 3D fluorescence peak position λex/λem (BSA [2]; [5]): 290/295; IC50 (Hela): 68.1 ± 1.05 µM
5 | O=c1c(-c2ccc(O)cc2)coc2cc(O)cc(O)c12 [Genistein] | > 100 µM | > 100 µM | 6.2416 ± 0.0984 10^4 M^−1 | -37.69 kJ/M | 6.2416 10^12 M^−1 s^−1 | 0.256 µM | 1.39 | 5.3472 ± 0.1242 10^4 M^−1 | -37.11 kJ/M | 5.3472 10^12 M^−1 s^−1 | 0.415 µM | 1.37 | -36.83 kJ/M | 0.671 µM | -59.09 kJ/M | −71.83 J K^−1 M^−1 | > 100 µM | 259.2 a.u | 230/355 | 333.2 a.u | n (binding sites) (BSA [1]; T 298 K): 1.42; K SV (quenching constant) (BSA [1]; T 310 K): 4.3285 ± 0.1005 10^4 M^−1; K q (quenching rate constant) (BSA [1]; T 310 K): 4.3285 10^12 M^−1 s^−1; 3D fluorescence peak position λex/λem (BSA [2]; [4]): 280/355; 3D fluorescence intensity (BSA [2]; [5]): 159.6 a.u; 3D fluorescence peak position λex/λem (BSA [2]; [5]): 290/295; IC50 (Hela): > 100 µM
